Where two headings read alike, the source gives them in different places.
Format: in vivo, CD1 (ICR) mice
Conditions: for Plasma Compound Concentration: Activated form 1 in plasma, 232.5 mg/kg (p.o.)
From the text: It was then centrifuged to obtain plasma.

SMILES: COC(=O)[C@@H](N)CCNC(=O)Oc1c2ccccc2c(OC(=O)NCC[C@H](N)C(=O)OC)c2oc(C(C)=O)cc12.Cl.Cl [Example 11]
- Plasma Compound Concentration (0.25 hr, animal 1): 18.86 µM
- Plasma Compound Concentration (0.25 hr, animal 2): 19.65 µM
- Plasma Compound Concentration (0.25 hr, animal 3): 25.31 µM
- Plasma Compound Concentration (0.25 hr, mean): 21.27 µM
- Plasma Compound Concentration (0.5 hr, animal 1): 17.48 µM
- Plasma Compound Concentration (0.5 hr, animal 2): 11.45 µM
- Plasma Compound Concentration (0.5 hr, animal 3): 17.11 µM
- Plasma Compound Concentration (0.5 hr, mean): 15.35 µM
- Plasma Compound Concentration (1.0 hr, animal 1): 10.87 µM
- Plasma Compound Concentration (1.0 hr, animal 2): 18.98 µM
- Plasma Compound Concentration (1.0 hr, animal 3): 15.93 µM
- Plasma Compound Concentration (1.0 hr, mean): 15.26 µM
- Plasma Compound Concentration (2.0 hr, animal 1): 13.53 µM
- Plasma Compound Concentration (2.0 hr, animal 2): 6.62 µM
- Plasma Compound Concentration (2.0 hr, animal 3): 13.57 µM
- Plasma Compound Concentration (2.0 hr, mean): 11.24 µM
- Plasma Compound Concentration (4.0 hr, animal 1): 6.12 µM
- Plasma Compound Concentration (4.0 hr, animal 2): 3.73 µM
- Plasma Compound Concentration (4.0 hr, animal 3): 11.49 µM
- Plasma Compound Concentration (4.0 hr, mean): 7.11 µM
- Plasma Compound Concentration (6.0 hr, animal 1): 2.37 µM
- Plasma Compound Concentration (6.0 hr, animal 2): 0.60 µM
- Plasma Compound Concentration (6.0 hr, animal 3): 0.75 µM
- Plasma Compound Concentration (6.0 hr, mean): 1.24 µM
- Plasma Compound Concentration (24.0 hr, animal 3): 0.04 µM
- Plasma Compound Concentration (24.0 hr, mean): 0.01 µM
- concentration of 2-acetylnaphtho[2,3-b]furan-4,9-dione (Activated form 1) observed (in words) (orally administered to mice): high concentration

From patent US10800752B2, “Substituted naphtho[2,3-b]furans as water-soluble prodrugs for preventing and/or treating cancer” (BOSTON BIOMEDICAL, INC., priority 2015, dated 2020)
